Reference: patent publication US20060194807A1, “Di-aryl substituted pyrazole modulators of metabotropic glutamate receptor-5” (priority 2003, published 2006)
Where a name gives a salt, the structure may show the parent alone.

Molecular target: T1, hmGluR5a receptor (Homo sapiens, UniProt P41594)
T1 construct: expressed in transfected cells; host or cells: mouse fibroblast Ltk- cells (hmGluR5a/L38-20 cell line)
Experiment: Calcium flux assay (fura-2, glutamate-evoked [Ca2+]i)
Assay type: cell-based
Details: hmGluR5a/L38-20 mouse fibroblast Ltk- cells; 10 μM glutamate (EC80); read-out: mGluR5 inhibitory activity, IC50
Procedure: The compounds of this invention were tested against the hmGluR5a receptor stably expressed in mouse fibroblast Ltk-cells (the hmGluR5a/L38-20 cell line) and activity was detected by changes in [Ca^++]i, measured using the fluorescent Ca^++-sensitive dye, fura-2. InsP assays were performed in mouse fibroblast Ltk^− cells (LM5a cell line) stably expressing hmGluR5a. The assays described in International Patent Publication WO 0116121 can be used.
The activity of compounds was examined against the hmGluR5a receptor stably expressed in mouse fibroblast Ltk− cells (the hmGluR5a/L38 cell line). See generally Daggett et al., Neuropharmacology 34:871-886 (1995). Receptor activity was detected by changes in intracellular calcium ([Ca^2+]i, measured using the fluorescent calcium-sensitive dye, fura-2. The hmGluR5a/L38-20 cells were plated onto 96-well plates, and loaded with 3 µM fura-2 for 1 h. Unincorporated dye was washed from the cells, and the cell plate was transferred to a 96-channel fluorimeter (SIBIA-SAIC, La Jolla, Calif.) which is integrated into a fully automated plate handling and liquid delivery system. Cells were excited at 350 and 385 nm with a xenon source combined with optical filters. Emitted light was collected from the sample through a dichroic mirror and a 510 nm interference filter and directed into a cooled CCD camera (Princeton Instruments). Image pairs were captured approximately every is, and ratio images were generated after background subtraction. After a basal reading of 20s, an EC80 concentration of glutamate (10 μM) was added to the well, and the response evaluated for another 60s. The glutamate-evoked increase in [Ca′]i in the presence of the screening compound was compared to the response of glutamate alone (the positive control).

T1 sequence (P41594 21-1180 isoform P41594-2 limits assumed): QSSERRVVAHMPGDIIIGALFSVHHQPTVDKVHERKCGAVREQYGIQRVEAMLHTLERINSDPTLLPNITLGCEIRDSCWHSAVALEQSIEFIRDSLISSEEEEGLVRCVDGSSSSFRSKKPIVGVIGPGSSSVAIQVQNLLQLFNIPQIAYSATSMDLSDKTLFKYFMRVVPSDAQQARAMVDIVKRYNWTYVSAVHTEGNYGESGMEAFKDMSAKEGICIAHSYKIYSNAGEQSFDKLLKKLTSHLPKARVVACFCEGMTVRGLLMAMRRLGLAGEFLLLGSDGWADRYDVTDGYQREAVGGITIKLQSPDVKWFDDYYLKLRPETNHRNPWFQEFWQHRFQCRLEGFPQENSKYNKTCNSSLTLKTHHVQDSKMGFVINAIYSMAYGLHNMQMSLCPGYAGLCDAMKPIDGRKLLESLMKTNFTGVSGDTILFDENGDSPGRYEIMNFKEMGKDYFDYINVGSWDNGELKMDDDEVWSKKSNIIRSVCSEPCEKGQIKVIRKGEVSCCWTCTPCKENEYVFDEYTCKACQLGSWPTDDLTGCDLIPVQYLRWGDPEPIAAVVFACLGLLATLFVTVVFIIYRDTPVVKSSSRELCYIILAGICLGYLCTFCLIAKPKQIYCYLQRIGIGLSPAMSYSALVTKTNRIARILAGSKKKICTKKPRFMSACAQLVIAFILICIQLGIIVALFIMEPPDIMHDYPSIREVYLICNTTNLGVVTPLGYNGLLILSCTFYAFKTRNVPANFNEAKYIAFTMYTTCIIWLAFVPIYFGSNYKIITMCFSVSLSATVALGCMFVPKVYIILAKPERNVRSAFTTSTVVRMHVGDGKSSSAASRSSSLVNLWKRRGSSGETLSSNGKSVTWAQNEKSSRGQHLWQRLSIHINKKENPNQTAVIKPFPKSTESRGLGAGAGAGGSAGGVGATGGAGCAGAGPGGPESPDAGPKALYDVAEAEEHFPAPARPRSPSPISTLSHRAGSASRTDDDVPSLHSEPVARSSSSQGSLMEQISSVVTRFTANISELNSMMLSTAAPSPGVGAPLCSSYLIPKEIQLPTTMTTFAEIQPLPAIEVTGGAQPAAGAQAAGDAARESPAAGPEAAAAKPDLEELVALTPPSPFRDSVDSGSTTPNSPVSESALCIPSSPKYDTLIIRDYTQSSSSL

Row | Structure (SMILES) | IC50
1 | CN1CCN(c2ccc(-n3cc(-c4ccncn4)cn3)cc2)C1=O [Example 27] | > 2000 nM
2 | Cc1cc(-c2cnn(-c3ccc(C4CCCCC4)cc3)c2)nc2ccccc12 [Example 24] | > 2000 nM
3 | c1ccc(-c2ccc(-n3cc(-c4ccccn4)cn3)cc2)nc1 [Example 11] | > 2000 nM
4 | CN1CCN(c2ccc(-n3cc(-c4cnc5ccccc5n4)cn3)cc2)C1=O [Example 29] | > 2000 nM
5 | c1ccc(-c2cnn(-c3ccc(C4CCCCC4)cc3)c2)nc1 [Example 20] | > 2000 nM
6 | c1ccc(-c2cccc(-n3cc(-c4ccccn4)cn3)c2)nc1 [Example 5] | < 2000 nM
7 | Fc1cc(-c2cnn(-c3ccccn3)c2)ccc1-c1ccccn1 [Example 15] | > 2000 nM
8 | Fc1cc(-c2nn[nH]n2)cc(-n2ccc(-c3ccccn3)n2)c1 [Example 2, 2-{1-[3-fluoro-5-(2H-tetraazol-5-yl)phenyl]-1H-pyrazol-3-yl}pyridine] | < 2000 nM
9 | Clc1cc(-c2cccnc2)cc(-c2cnn(-c3ccccn3)c2)c1 [Example 3, 2-[4-(3-chloro-5-pyridin-3-ylphenyl)-1H-pyrazol-1-yl]pyridine] | < 2000 nM
10 | c1ccc(-c2cccc(-n3cc(-c4ccccn4)cn3)c2)cc1 [Example 31] | > 2000 nM
11 | CN1CCN(c2ccc(-n3cc(-c4ccc5ccccc5n4)cn3)cc2)C1=O [Example 28] | > 2000 nM
12 | c1ccc(-c2cnn(-c3ccc(-c4cccnc4)cc3)c2)nc1 [Example 12] | > 2000 nM
13 | c1ccc(-c2cnn(-c3cccc(-c4cccnc4)c3)c2)nc1 [Example 4] | < 2000 nM
14 | c1ccc(-c2cccc(-n3cc(-c4ccncn4)cn3)c2)cc1 [Example 19] | > 2000 nM
15 | c1ccc(-c2cccc(-n3cc(-c4ccccn4)cn3)c2)cc1 [Example 6] | < 2000 nM
16 | c1ccc(-c2ccc(-n3cc(-c4ccncn4)cn3)cc2)cc1 [Example 25] | > 2000 nM

Row | Structure (SMILES) | IC50
17 | c1ccc2nc(-c3cnn(-c4ccc(C5CCCCC5)cc4)c3)ccc2c1 [Example 22] | > 2000 nM
18 | Clc1cc(-c2cccnc2)cc(-n2cc(-c3ccccn3)cn2)c1 [Example 1, 2-[1-(3-chloro-5-pyridin-3-ylphenyl)-1H-pyrazol-4-yl]pyridine] | < 2000 nM
19 | Cc1cc(-c2cnn(-c3ccc(N4CCN(C)C4=O)cc3)c2)nc2ccccc12 [Example 30] | > 2000 nM
20 | COc1cc(-c2cnn(-c3ccccn3)c2)ccc1-c1ccccn1 [Example 7] | < 2000 nM
21 | c1ccc(-c2cnn(-c3cccc(-c4ccncc4)c3)c2)nc1 [Example 10] | > 2000 nM
22 | c1ccc(-c2ccc(-n3ccc(-c4ccccn4)n3)cc2)cc1 [Example 9, 2-(1-biphenyl-4-yl-1H-pyrazol-3-yl)-pyridine hydrochloride] | > 2000 nM
23 | c1ccc2nc(-c3cnn(-c4ccc(C5CCCCC5)cc4)c3)cnc2c1 [Example 23] | > 2000 nM
24 | c1ccc(-c2cnn(-c3cccc(-c4cccnc4)n3)c2)nc1 [Example 8, 6-(4-pyridin-2-yl-1H-pyrazol-1-yl)-2,3′-bipyridine] | > 2000 nM
25 | c1ccc(-c2cccc(-c3cnn(-c4ccccn4)c3)c2)cc1 [Example 33] | > 2000 nM
26 | c1ccc(-c2ccccc2-n2cc(-c3ccccn3)cn2)cc1 [Example 17] | > 2000 nM
27 | Clc1cc(-c2cnn(-c3ccccn3)c2)cc(-n2ccc3ccncc32)c1 [Example 14] | > 2000 nM
28 | c1ccc(-c2ccc(-n3cc(-c4ccccn4)cn3)cc2)cc1 [Example 16] | > 2000 nM
29 | Cc1cc(-c2cnn(-c3ccc(N4CCNC4=O)cc3)c2)nc2ccccc12 [Example 26] | > 2000 nM
30 | c1ccc(-c2ccccc2-n2cc(-c3ccncn3)cn2)cc1 [Example 18] | > 2000 nM
31 | Cc1ccncc1-c1cc(F)cc(-c2cnn(-c3ccccn3)c2)c1 [Example 13] | > 2000 nM
32 | c1cc(-c2cnn(-c3ccc(C4CCCCC4)cc3)c2)ncn1 [Example 21] | > 2000 nM
